US20120245161A1 (SANOFI, priority 2009, published 2012)
Counter-ions that a name gives are not always drawn.

What follows are compounds tested against T1, recombinant human beta tryptase (Homo sapiens, UniProt P20231) (assay: beta-Tryptase inhibition, chromogenic enzyme assay (substrate S2366, read at 405 nm)). Settings: Tryptase Ki (nM), Ki calculated from IC50: Ki=IC50/(1+[Substrate]/Km); 0.5 mM substrate, room temperature.
T1 construct: made in house; host or cells: yeast cells
T1 sequence (P20231 31-275): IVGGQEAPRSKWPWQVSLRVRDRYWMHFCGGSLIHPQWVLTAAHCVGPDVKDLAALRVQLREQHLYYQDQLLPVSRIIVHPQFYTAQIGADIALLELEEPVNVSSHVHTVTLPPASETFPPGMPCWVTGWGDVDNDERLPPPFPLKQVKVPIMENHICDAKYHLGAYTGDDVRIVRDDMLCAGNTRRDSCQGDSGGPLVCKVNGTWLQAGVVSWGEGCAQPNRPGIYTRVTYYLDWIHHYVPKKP
Type: biochemical
Text: Inhibition of this catalytic activity may be measured by the in vitro enzyme assay and the cellular assay.
Tryptase inhibition activity is confirmed using either isolated human lung tryptase or recombinant human beta tryptase expressed in yeast cells. Essentially equivalent results are obtained using isolated native enzyme or the expressed enzyme. The assay procedure employs a 96 well microplate (Costar 3590) using L-pyroglutamyl-L-prolyl-L-arginine-para-nitroanilide (S2366: Quadratech) as substrate (essentially as described by McEuen et. al. Biochem Pharm, 1996, 52, pages 331-340). Assays are performed at room temperature using 0.5 mM substrate (2×Km) and the microplate is read on a microplate reader (Beckman Biomek Plate reader) at 405 nm wavelength.
Materials and Methods for Tryptase primary screen (Chromogenic assay)
S2366 (Stock solutions of 2.5 mM).
Purified recombinant beta Tryptase Stocks of 310 μg/mL. Protocol (Single point determination) • Add 60 μL of diluted substrate (final concentration of 500 μM in assay buffer) to each well • Add compound in duplicates, final concentration of 20 volume 20 • Add enzyme at a final concentration of 50 ng/mL in a volume of 20 • Total volume for each well is 100 • Agitate briefly to mix and incubate at room temp in the dark for 30 minutes • Read absorbencies at […] Each plate has the following controls: • Totals: 60 μL of substrate, 20 μL of buffer (with 0.2% final concentration of DMSO), • 20 μL of enzyme Non-specific: 60 μL of substrate, 40 μL of buffer (with 0.2% DMSO) Totals: 60 μL of substrate, 20 μL of buffer (No DMSO), 20 μL of enzyme Non-specific: 60 μL of substrate, 40 μL of buffer (No DMSO) Protocol (IC50 and Ki determination)
The protocol is essentially the same as above except that the compound is added in duplicates at the following final concentrations: 0.01, 0.03, 0.1, 0.3, 1, 3, 10 μM (All dilutions carried out manually). For every assay, whether single point or IC50 determination, a standard compound is used to derive IC50 for comparison. From the IC50 value, the Ki can be calculated using the following formula: Ki=IC50/(1+[Substrate]/Km).
Compound `COCCn1cc(C(=O)N2CCC(c3cc(CN)ccc3OCC(=O)OC)CC2)c2cccc(OC(F)(F)F)c21` [Example 24, (4-Aminomethyl-2-{1-[1-(2-methoxy-ethyl)-7-trifluoromethoxy-1H-indole-3-carbonyl]-piperidin-4-yl}-phenoxy)-acetic acid methyl ester hydrochloride] has a Ki of 98 nM.
Compound `COCCn1cc(C(=O)N2CCC(c3cc(CN)ccc3OCC(=O)N(C)C)CC2)c2cccc(C)c21` [Example 25, 2-(4-Aminomethyl-2-{1-[1-(2-methoxy-ethyl)-7-methyl-1H-indole-3-carbonyl]-piperidin-4-yl}-phenoxy)-N,N-dimethyl-acetamide hydrochloride] has a Ki of 672 nM.
`CNC(=O)COc1ccc(CN)cc1C1CCN(C(=O)c2cn(CCOC)c3c(C)cccc23)CC1` [Example 26, 2-(4-Aminomethyl-2-{1-[1-(2-methoxy-ethyl)-7-methyl-1H-indole-3-carbonyl]-piperidin-4-yl}-phenoxy)-N-methyl-acetamide hydrochloride] showed a Ki of 306 nM.
`NCc1ccc(F)c(C2CCN(C(=O)c3cn(CCOCCO)c4c(OC(F)(F)F)cccc34)CC2)c1` [Example 27, [4-(5-Aminomethyl-2-fluoro-phenyl)-piperidin-1-yl]-{1-[2-(2-hydroxy-ethoxy)-ethyl]-7-trifluoromethoxy-1H-indol-3-yl}-methanone hydrochloride] was tested, and the Ki was 164 nM.
In the case of `CNC(=O)COc1ccc(CN)cc1C1CCN(C(=O)c2cn(CCOC)c3c(OC(F)(F)F)cccc23)CC1` [Example 28, 2-(4-Aminomethyl-2-{1-[1-(2-methoxy-ethyl)-7-trifluoromethoxy-1H-indole-3-carbonyl]-piperidin-4-yl}-phenoxy)-N-methyl-acetamide hydrochloride], the Ki is reported as 538 nM.
Compound `COCCn1cc(C(=O)N2CCC(c3cc(CN)ccc3OCC(=O)N(C)C)CC2)c2cccc(OC(F)(F)F)c21` [Example 29, 2-(4-Aminomethyl-2-{1-[1-(2-methoxy-ethyl)-7-trifluoromethoxy-1H-indole-3-carbonyl]-piperidin-4-yl}-phenoxy)-N,N-dimethyl-acetamide hydrochloride] has a Ki of 331 nM.
For `CN1CCCCC1CCn1cc(C(=O)N2CCC(c3cc(CN)ccc3F)CC2)c2ccccc21` (stereo not drawn) [Example 30, [4-(5-Aminomethyl-2-fluoro-phenyl)-piperidin-1-yl]-{1-[2-(1-methyl-piperidin-2-yl)-ethyl]-1H-indol-3-yl}-methanone dihydrochloride], the Ki was 50 nM.
`COCCn1cc(C(=O)N2CCC(c3cc(CN)ccc3OCC(N)=O)CC2)c2cccc(C)c21` [Example 31, 2-(4-Aminomethyl-2-{1-[1-(2-methoxy-ethyl)-7-methyl-1H-indole-3-carbonyl]-piperidin-4-yl}-phenoxy)-acetamide hydrochloride] was tested, and the Ki was 306 nM.
`COCCn1cc(C(=O)N2CCC(c3cc(CN)ccc3OCC(N)=O)CC2)c2cccc(OC(F)(F)F)c21` [Example 32, 2-(4-Aminomethyl-2-{1-[1-(2-methoxy-ethyl)-7-trifluoromethoxy-1H-indole-3-carbonyl]-piperidin-4-yl}-phenoxy)-acetamide hydrochloride] gave a Ki of 1280 nM.
In the case of `NCc1ccc(F)c(C2CCN(C(=O)c3cn(CCCF)c4c(OC(F)(F)F)cccc34)CC2)c1` [Example 34, [4-(5-Aminomethyl-2-fluoro-phenyl)-piperidin-1-yl]-[1-(3-fluoro-propyl)-7-trifluoromethoxy-1H-indol-3-yl]-methanone hydrochloride], the Ki is reported as 1010 nM.
For `NCc1ccc(F)c(C2CCN(C(=O)c3cn(CCc4ccncc4)c4ccccc34)CC2)c1` [Example 35, [4-(5-Aminomethyl-2-fluoro-phenyl)-piperidin-1-yl]-[1-(2-pyridin-4-yl-ethyl)-1H-indol-3-yl]-methanone dihydrochloride], the Ki was 8.6 nM.

Same assay, conditions: Tryptase Ki, cell prints its own unit uM under a head in nM
In the case of `COCCn1cc(C(=O)N2CCC(c3cc(CN)ccc3OCC(=O)O)CC2)c2cccc(C)c21` [Example 33, (4-Aminomethyl-2-{1-[1-(2-methoxy-ethyl)-7-methyl-1H-indole-3-carbonyl]-piperidin-4-yl}-phenoxy)-acetic acid hydrochloride], the Ki is reported as over 10000 nM.
